Data: PubChem BioAssay (NCI)
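Test compounds were applied to cells in 96-well plates for 48 hours at 5 doses. Here, GI50 denotes the concentration required for 50% inhibition of growth. TGI is the concentration that stops growth completely.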

Columns and labels:
Assay in all cases: NCI anticancer screen, dose series, 48 h
RXF 393 renal = system: RXF 393 renal
HL-60(TB) leukemia = system: HL-60(TB) leukemia
HOP-62 NSCLC = system: HOP-62 NSCLC
IGROV1 ovarian = system: IGROV1 ovarian
EKVX NSCLC = system: EKVX NSCLC
NCI-H460 lung = system: NCI-H460 lung
SK-MEL-2 melanoma = system: SK-MEL-2 melanoma
M14 melanoma = system: M14 melanoma
HOP-92 NSCLC = system: HOP-92 NSCLC
786-0 renal = system: 786-0 renal

Structure (SMILES)	GI50 (RXF 393 renal)	TGI (RXF 393 renal)	GI50 (HL-60(TB) leukemia)	TGI (HL-60(TB) leukemia)	GI50 (HOP-62 NSCLC)	TGI (HOP-62 NSCLC)	GI50 (IGROV1 ovarian)	TGI (IGROV1 ovarian)	GI50 (EKVX NSCLC)	TGI (EKVX NSCLC)	GI50 (NCI-H460 lung)	TGI (NCI-H460 lung)	GI50 (SK-MEL-2 melanoma)	TGI (SK-MEL-2 melanoma)	GI50 (M14 melanoma)	TGI (M14 melanoma)	TGI (HOP-92 NSCLC)	TGI (786-0 renal)
Nc1ccccc1.[C-]#[O+].[C-]#[O+].[C-]#[O+].[C-]#[O+].[C-]#[O+].[Cr]	3.22 µM	> 10 µM	1.68 µM	6.94 µM	4.6 µM	> 10 µM	5.53 µM	> 10 µM	9.33 µM	> 10 µM	5.64 µM	> 10 µM	3.91 µM	> 10 µM	3.44 µM	> 10 µM		
CSC1C(=O)Nc2ccc3ccccc3c21 (centres undefined)				10.8 µM		71.8 µM		33.3 µM		38.2 µM		> 100 µM		> 100 µM		68.3 µM	40.6 µM	32.6 µM
Cc1c(CCO)c(=O)n2c([nH]c3ccccc32)c1C#N		> 100 µM				> 100 µM		> 100 µM		> 100 µM		98.8 µM		> 100 µM		> 100 µM	> 100 µM	> 100 µM
COc1cc(C2=NNC(=O)c3ccccc3N2c2nc(-c3cccs3)nc3ccc(Br)cc23)cc(OC)c1OC						59.2 µM		> 100 µM		86.4 µM		14.2 µM		> 100 µM		73.8 µM	27.7 µM	> 100 µM
COc1cc(C2SC(C)C(=O)N2c2ccc(-c3csc(NS(=O)(=O)c4ccc(Cl)c(OC)c4)n3)cc2)ccc1O (centres undefined)		> 100 µM		95.7 µM		> 100 µM		> 100 µM				> 100 µM		> 100 µM		> 100 µM	> 100 µM	> 100 µM
Cc1ccc(C(=O)N(Cc2ccccc2)Cc2ccccc2)cc1N=NN(C)C				61.9 µM		90 µM		> 100 µM		> 100 µM		> 100 µM		9.79 µM		> 81.2 µM	70.1 µM	> 100 µM
Cc1c(-c2ccccc2)nn2cc(-c3ccccc3)nnc12		47.8 µM				> 100 µM		> 100 µM				51.2 µM		47 µM		> 100 µM	88.3 µM	> 100 µM
CCn1c(SC(C)C(=O)c2c(C)n(C)n(-c3ccccc3)c2=O)nc2ccccc2c1=O (centres undefined)				> 100 µM		> 100 µM		> 100 µM		> 100 µM		> 100 µM		> 100 µM		> 100 µM	> 100 µM	> 100 µM
O=C1c2ccccc2C(=O)c2c(O)c(NCCCNCCO)cc(O)c21				19.7 µM		15.4 µM		28.8 µM		28.3 µM		17.8 µM		33 µM		36.6 µM	31.7 µM	23 µM
COc1cc(CNc2cnc3cc(N)ccc3n2)cc(OC)c1OC				39.8 µM		> 100 µM		> 100 µM		> 100 µM		> 100 µM		2.38 µM		74.3 µM	> 100 µM	> 100 µM
COc1cc([C@@H]2c3cc4c(cc3[C@@H](Nc3ccccc3C(=O)c3ccccc3)[C@H]3COC(=O)[C@H]23)OCO4)cc(OC)c1OC		> 100 µM				> 100 µM		90.5 µM		> 100 µM				> 100 µM		> 53.7 µM		> 100 µM
CCN(CC)C(=S)Nc1ccc(-c2cc3ccc(O)cc3oc2=O)cc1		> 100 µM		23.2 µM				> 100 µM		> 100 µM		> 100 µM		49.3 µM		> 100 µM		> 100 µM
CCOP(=O)(OCC)C(c1ccccc1)N(C(=O)NC(F)(F)F)c1cccc(F)c1 (centres undefined)		> 100 µM		> 100 µM		> 100 µM		> 100 µM		> 100 µM		> 100 µM				> 100 µM		> 100 µM
O=C(CCCCCCCCC(=O)N1C(=O)CC(=O)N(c2ccccc2)C1=S)N1C(=O)CC(=O)N(c2ccccc2)C1=S		> 100 µM				> 100 µM				> 100 µM		> 100 µM		> 100 µM		> 100 µM	> 100 µM	> 100 µM
O=c1[nH]c2ccccc2c(O)c1/C=N/C(=S)NCc1ccccc1				> 100 µM		> 100 µM		> 100 µM		> 100 µM				> 100 µM		> 100 µM	> 100 µM	> 100 µM
C/C(=C\c1ccccc1)C(=O)NCc1ccc(C(=O)NCCc2ccccc2)cc1		41.4 µM				10.8 µM		> 100 µM		> 100 µM		> 100 µM		> 100 µM		> 100 µM	99.1 µM	> 100 µM
O=c1cc(NNc2cccc(F)c2)[nH]c(=O)[nH]1		35.1 µM		44.6 µM		> 100 µM		46.7 µM				> 100 µM		> 100 µM		33.9 µM	30 µM	30.1 µM

Structure (SMILES)	GI50 (RXF 393 renal)	TGI (RXF 393 renal)	GI50 (HL-60(TB) leukemia)	TGI (HL-60(TB) leukemia)	GI50 (HOP-62 NSCLC)	TGI (HOP-62 NSCLC)	GI50 (IGROV1 ovarian)	TGI (IGROV1 ovarian)	GI50 (EKVX NSCLC)	TGI (EKVX NSCLC)	GI50 (NCI-H460 lung)	TGI (NCI-H460 lung)	GI50 (SK-MEL-2 melanoma)	TGI (SK-MEL-2 melanoma)	GI50 (M14 melanoma)	TGI (M14 melanoma)	TGI (HOP-92 NSCLC)	TGI (786-0 renal)
CCCCCCNC(=O)CCC(NC(=O)c1ccc(N(C)Cc2cnc3nc(N)nc(N)c3n2)cc1)C(=O)NCCCCCC (centres undefined)		> 100 µM				> 100 µM		97.2 µM		> 100 µM		> 100 µM		> 100 µM		> 100 µM	> 100 µM	> 100 µM
CCC/C=C1\CCC(CN(C)C)C1=O (centres undefined)				31.5 µM		29.2 µM		34.4 µM		12.3 µM		> 63.2 µM		29.7 µM		16.1 µM	6.8 µM	7.16 µM
NNc1nncc2[nH]cnc12		> 100 µM		> 100 µM		> 100 µM		> 100 µM		> 100 µM		> 100 µM		> 100 µM		> 100 µM		> 100 µM
CCOC(=O)c1c(-c2ccc(Cl)cc2)c(C#N)c(=S)n(C2OC(COC(C)=O)C(OC(C)=O)C(OC(C)=O)C2OC(C)=O)c1-c1ccccc1 (centres undefined)		> 100 µM		> 100 µM		> 100 µM		> 100 µM				> 100 µM		> 100 µM		> 100 µM	81.7 µM	> 100 µM
COc1ccc2c(c1)C/C(=C\c1cccc3ccccc13)C2=O		22.5 µM		> 100 µM				> 100 µM		> 100 µM		> 100 µM				> 100 µM		77.7 µM
Cc1ccc2c(=O)c(C(=O)Nn3c(C)csc3=S)c[nH]c2n1		> 100 µM		> 100 µM		> 100 µM		> 100 µM		> 100 µM		> 100 µM		> 100 µM		> 100 µM		> 100 µM
COC(OC)C1OCC(n2cc(F)c(=O)[nH]c2=O)C1O (centres undefined)		> 100 µM				> 100 µM		> 100 µM		> 100 µM		> 100 µM		> 100 µM		> 100 µM	> 100 µM	> 100 µM
C[n+]1c(-c2ccc(/C=N/Nc3ccnc(N/N=C/c4ccc(-c5cn6ccsc6[n+]5C)cc4)n3)cc2)cn2ccsc21		51.9 µM				80.2 µM		> 100 µM		45.7 µM		91.3 µM		85.9 µM		54.7 µM	> 100 µM	46.6 µM
O=S(OC12CC3CC(CC(C3)C1)C2)c1cc(Cl)cc(Cl)c1OCc1ccccc1 (centres undefined)		> 100 µM		> 100 µM		> 100 µM				> 100 µM		> 100 µM		> 100 µM		> 100 µM		
O=c1cc(-c2c[nH]c3ccccc23)[nH]c2cc3c(cc12)OCO3		> 100 µM		> 100 µM		> 100 µM		> 100 µM		> 100 µM		> 100 µM		> 100 µM		> 100 µM		> 100 µM
CC1(C)C(CCO)CC1n1cc(I)c(=O)[nH]c1=O (centres undefined)		> 100 µM				> 100 µM				> 100 µM				> 100 µM		> 100 µM	> 100 µM	> 100 µM
O=C(c1ccccc1)n1cc(-c2ccccc2)c2c(=O)[nH]cnc21		> 100 µM				> 100 µM		> 100 µM		> 100 µM				> 100 µM		> 100 µM	> 100 µM	> 100 µM
O=C(O)C[C@@H]1[C@@H](O)[C@@H](O)CN2C(=O)c3ccccc3[C@H]12		> 100 µM				> 100 µM		> 100 µM		> 100 µM		> 100 µM		> 100 µM		> 100 µM		> 100 µM
Brc1ccc2c3c1[C@H]1O[C@H]1c1cccc(c1-3)[C@@H]1O[C@H]21						30.3 µM				36.5 µM				41.6 µM		32.4 µM	38.3 µM	34.6 µM
CCOC(=O)c1nc2ccccc2nc1Oc1ccc(C(=O)OC)cc1		> 100 µM				> 100 µM		> 100 µM		> 100 µM		> 100 µM		> 100 µM		> 100 µM	> 100 µM	> 100 µM
COC1CC(OC2C(C)OC(OC3C(C)OC(OC4C(O)CC(O[C@H]5CC[C@@]6(C)C(=CC[C@]7(O)[C@@H]6C[C@@H](OC(C)=O)[C@@]6(C)[C@]7(O)CC[C@@]6(O)C(C)=O)C5)OC4C)CC3OC)CC2OC)OC(C)C1O (some centres undefined)				> 12.5 µM		> 12.5 µM		> 12.5 µM		> 12.5 µM				> 12.5 µM		> 12.5 µM	> 12.5 µM	> 12.5 µM
